{"source": "patent US20020143143A1", "about": "“Peptides designed for the diagnosis and treatment of rheumatoid arthritis” (priority 1999, published 2002)", "key": {"RA sera [1]": {"test_system": "RA sera", "conditions": "cited from earlier work"}, "[2]": {"test_system": "anti-filaggrin antibodies in human sera", "experiment": "Western blotting using natural filaggrin", "assay_type": "binding", "description": "Natural filaggrin was purified from human skin obtained freshly after abdominoplasty according to the protocol of Simon et al. (1993). The amount of protein was determined by the Bradford protein assay as modified by Peterson (1983) using BSA standard curves. The crude filaggrin preparation was subjected to 15% Laemmli SDS-PAGE using the Bio-Rad mini-gel apparatus. Two-μg protein/cm was loaded in a large slot and electrophoresed under standard conditions. The gel was subsequently electroblotted onto nitrocellulose membrane in 10% methanol, 10 mM CAPS, pH 11.0 during 40 min. The blot was blocked in PBS, 0.05% Tween20, 1% gelatin and cut into 3 mm strips, which were probed with human sera overnight at a 1/100 dilution in PBS, 0.05% Tween20, 0.1% gelatin. As a secondary antibody the anti-human IgG-AP conjugate (Sigma, St Louis, […]) was added at a 1/1000 dilution; visualisation occurred with the NBT/BCIP chromogenic substrate."}, "RA sera [3]": {"test_system": "RA sera", "conditions": "159/279 RA sera; specificity level of 98.6% using 213 disease control sera; cited from earlier work"}, "[4]": {"test_system": "anti-filaggrin autoantibodies", "conditions": "cited from earlier work"}, "[5]": {"test_system": "RA specific autoantibodies in human sera", "experiment": "LIA comparison of synthetic peptides with existing peptides and citrullinated recombinant filaggrin (Example 3)", "assay_type": "binding", "conditions": "212 established RA sera, 153 disease control sera (table title: 225 and 154); ROC analysis", "description": "Streptavidin-complexed peptides were applied directly on a nylon membrane with a plastic backing. Blocked strips were incubated during 1 hour with human sera diluted 1/100 in 1 ml PBS, 0.5% caseine, 0.1% Triton X705, 10 mM MgCl2.6H2O. After washing with PBS, 0.05% Tween20, goat anti-human IgG-AP conjugate (Promega) diluted in PBS, 0.1% caseine, 0.2% Triton X705 was added for 30 min. Strips were developed in 100 mM NaCl, 100 mM Tris-HCl, pH 9.8, 50 mM MgCl2.6H2O substrate buffer containing the chromogenic substrate NBT/BCIP. Reaction was stopped after 30 min by addition of 0.2 N H2SO4. Air-dried strips were scanned using a HP Scanjet 5P scanner and an in-house LIA interpretation software program.\nRecombinant human filaggrin was expressed in E. coli and purified by Ni-IMAC chromatography. Citrullination was performed as described by Senshu et al. (1995) using peptidylarginine deiminase (Sigma) at a 1/120 enzyme/substrate ratio during 4h at 37° C.\nThree synthetic peptides (IGP1475, 1477 and 1564) described by Girbal-Neuhauser (1999) (patent application WO 99/35167) and the cyclic peptide IGP1546 described in the patent application WO 98/22503, were synthesised and used for comparison with IGP1611, 1646, 1650 and 1651 on LIA.\nOn the same strips, also citrullinated recombinant E. coli filaggrin was applied. […]"}}, "note": "Like-named read-outs stand apart in the source and are kept apart here.", "data": [{"substance": "natural filaggrin: Natural filaggrin purified from human skin (crude filaggrin preparation); in b6 isolated from human epidermis", "values": [{"measurement": "RA sera detected in ELISA", "setting": "RA sera [1]; 55 RA sera", "result": 47, "unit": "%"}, {"measurement": "healthy controls showing positivity in ELISA", "setting": "RA sera [1]; healthy controls", "result": 1, "unit": "%"}, {"measurement": "sensitivity of Western blot", "setting": "[2]; 47 sera from patients with early disease (less than 12 months of symptoms)", "result": 25, "unit": "%"}, {"measurement": "specificity of Western blot system", "setting": "[2]; 153 disease controls", "result": 94, "unit": "%"}, {"measurement": "sensitivity of Western blot", "setting": "[2]; 212 longstanding RA sera", "result": 41, "unit": "%"}, {"measurement": "RA sera showing positive reaction on Western blot", "setting": "RA sera [3]", "result": 37, "unit": "%"}]}, {"substance": "recombinant human filaggrin: recombinant human filaggrin, in vitro deiminated by PAD or non-citrullinated (Girbal-Neuhauser et al., 1999)", "values": [{"measurement": "reactivity with human RA sera in ELISA", "setting": "[4]; after in vitro deimination by peptidylarginine deiminase (PAD)", "result": "reactive"}, {"measurement": "reactivity with human RA sera in ELISA", "setting": "[4]; non-citrullinated protein", "result": "unreactive"}]}, {"substance": "Citr. rec. filaggrin: Recombinant human filaggrin expressed in E. coli, citrullinated using peptidylarginine deiminase", "values": [{"measurement": "Sensitivity at 98% spec. level", "setting": "[5]", "result": 32, "unit": "%"}]}]}
